The data set in a line: recombinant barcode read abundance after kanamycin selection (control-corrected) (log10(CPM+1)); higher = more efficient recombination; sequences stand for … in AGTGCAGAGAAAATCGGCCAGTTTTCTCTGCCTGCAGTCCGCATGCCGT…AGATTTATGCAGCGGACTGCCTTTCTCCCAAAGTGATAAACCGGACAGTATCATGGACCGGTTTTCCCGGTAATCCGTATTTGCAAGGTTGGTTTCACT; site = the 11-nt target. In a few lines:
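Recombination efficiency was calculated from barcode counts at recombinant junctions, normalized to counts per million, averaged and corrected by the control. Each value is given as log10(CPM+1). The constructs were Gibson-cloned oligos (promoter, target, barcode, J23119-driven first 104 bridge RNA bases) in a vector with the remaining 73 bp and a T7-inducible recombinase, co-electroporated into E. coli with a donor plasmid and plated in duplicate on chloramphenicol/ampicillin LB agar (control) or chloramphenicol/ampicillin/kanamycin with 0.1 mM IPTG.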
For “TCCCACTCTTGGGTTCTAACCTGTTGCCT (site TCTCACTCTAG)”, the “recombinant barcode read abundance (log10)” value was 0.0682.

On to “TCCCAGTCTTGGGTTCTAACCTGTTGCTG (site TCCCAGTCTCA)”, for which the “recombinant barcode read abundance (log10)” value worked out at 0.635.

As to “TCCCAGTCTTGGGTTCTAACCTGTTGCTG (site TCTCAGTCTCC)”, the “recombinant barcode read abundance (log10)” value came to 0.0317. In the case of “TCCCATACTTGGGTTCTAACCTGTTGCAT (site AGTGGACCTGG)”, the “recombinant barcode read abundance (log10)” value is 0.2. In the case of “TCCCATACTTGGGTTCTAACCTGTTGCAT (site TCCCATACTAT)” it was 0.982; in that of “TCCCATTCTTGGGTTCTAACCTGTTGCCT (site TCCCATACTAG)”, 0.197.

For the sequence “TCCCATTCTTGGGTTCTAACCTGTTGCCT (site TCCCATCCTAG)”, the “recombinant barcode read abundance (log10)” value was 0.03. As for “TCCCATTCTTGGGTTCTAACCTGTTGCCT (site TCCCATGCTAG)”, the figure is 0.0488; as for “TCCCATTCTTGGGTTCTAACCTGTTGCCT (site TCCCATTCTAG)”, 0.115; as for “TCCCGAGCTTGGGTTCTAACCTGTTGCCT (site TCCCGAACTAG)”, 0.435. In the case of “TCCCGAGCTTGGGTTCTAACCTGTTGCCT (site TCCCGACCTAG)”, the “recombinant barcode read abundance (log10)” value worked out at 0. In the case of “TCCCGAGCTTGGGTTCTAACCTGTTGCCT (site TCCCGAGCTAG)” it was 1.55. In the case of “TCCCGAGCTTGGGTTCTAACCTGTTGCCT (site TCCCGATCTAG)” it was 0.119; in that of “TCCGAAACTTGGGTTCTAACCTGTTGCAT (site TCCGAAACTAT)”, 1.15; in that of “TCCGAAACTTGGGTTCTAACCTGTTGCAT (site TCTGAAACTAG)”, 0.0197. With “TCCGAGCCTTGGGTTCTAACCTGTTGCAT (site TCCGAGCCTAC)”, the “recombinant barcode read abundance (log10)” value is 0.228. Regarding “TCCGAGCCTTGGGTTCTAACCTGTTGCAT (site TCCGAGCCTAT)”, the “recombinant barcode read abundance (log10)” value amounted to 1.98. In the case of “TCCGCTCCTTGGGTTCTAACCTGTTGCCT (site TCCGCTACTAG)” it was 0.177. In the case of “TCCGCTCCTTGGGTTCTAACCTGTTGCCT (site TCCGCTCCTAG)” it was 0.323; in that of “TCCGCTCCTTGGGTTCTAACCTGTTGCCT (site TCCGCTGCTAG)”, 0.215. In the case of “TCCGCTCCTTGGGTTCTAACCTGTTGCCT (site TCCGCTTCTAG)” it was 0.0907. Consider “TCCGTACCTTGGGTTCTAACCTGTTGCCG (site TCCGTACCTCG)”, for which the “recombinant barcode read abundance (log10)” value amounted to 0.814. In the case of “TCCGTACCTTGGGTTCTAACCTGTTGCCG (site TCCGTCCCTCA)” it was 0.0904; in that of “TCCGTCTCTTGGGTTCTAACCTGTTGCCA (site TCCGTCTCTCG)”, 0.233.

In the case of “TCCGTCTCTTGGGTTCTAACCTGTTGCCA (site TCCGTCTCTTG)”, the “recombinant barcode read abundance (log10)” value is 0.692.

Turning to “TCCGTCTCTTGGGTTCTAACCTGTTGCCG (site TCCGTCTCTCG)”, the “recombinant barcode read abundance (log10)” value is 1.13.

In the case of “TCCGTCTCTTGGGTTCTAACCTGTTGCCG (site TCCGTCTCTTG)”, the “recombinant barcode read abundance (log10)” value amounted to 0.0281. In the case of “TCCTAGTCTTGGGTTCTAACCTGTTGCCA (site GCCTAGTCTTG)” it was 0.405; in that of “TCCTAGTCTTGGGTTCTAACCTGTTGCCA (site TCCTAGTCTTG)”, 0.137. As for “TCCTTAGCTTGGGTTCTAACCTGTTGCCT (site TCATTCGCTAG)”, the figure is 0.0127; as for “TCCTTAGCTTGGGTTCTAACCTGTTGCCT (site TCCTTAGCTAG)”, 0.579; as for “TCGAAACCTTGGGTTCTAACCTGTTGCCT (site TCGAAACCTAG)”, 0.625.
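Further: IS621 recombinase and bridge RNA in Escherichia coli cells.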
